Data set [1] concerns dengue virus type 2. Nature of the data set: Antiviral activity against DENV-2 infected in BHK-21 cells assessed as cytopathic effect after 96 hrs by LDH assay. The class given is functional, organism-based. Conditions: for pEC50: BHK-21, 96 h.
Data set [2] can be described thus: Selectivity index, ratio of CC50 for golden hamster BHK-21 cells EC50 for DENV-2 infected in BHK-21 cells. The class given is toxicity, cell-based. Conditions: read-out: Selectivity Index.
A short description of data set [3]: Cytotoxicity against golden hamster BHK-21 cells incubated for 48 hrs by MTT assay. The class given is cell-based, Mesocricetus auratus. A general note: Tetrazolium assays rely on reduction of a dye to a coloured formazan, in cell work by metabolically active cells.
Data set [4] deals with BHK-21. In words: Reduction in viral structure E protein expression in DENV-2 infected golden hamster BHK-21 cells at 2.5 uM by Western blot analysis relative to control. The class given is functional, cell-based. The conditions noted are these: dengue virus type 2.
For data set [5], the system named is dengue virus type 2. Nature of the data set: Antiviral activity against second round DENV-2 infected in BHK-21 cells assessed as reduction in new virion infectivity measured after 24 hrs by focus-forming assay. The class given is functional, organism-based.
The test system of data set [6] is BHK-21. Nature of the data set: Reduction in viral structure E protein expression in second round DENV-2 infected golden hamster BHK-21 cells assessed in new virions at 0.5 to 10 uM measured after 24 hrs by Western blot analysis relative to control. The class given is functional, cell-based. Conditions: dengue virus type 2, dose 0.5-10 µM. For orientation: A western blot detects proteins with antibodies after separation by electrophoresis.

Data set [7] can be described thus: Reduction in viral structure E protein expression in DENV-2 infected golden hamster BHK-21 cells at 10 uM by Western blot analysis relative to control. The class given is functional, dengue virus type 2. The conditions noted are these: Dengue virus.
The subject of data set [8] is BHK-21. Nature of the data set: Binding affinity to MTase domain of NS5 in DENV-2 infected in BHK-21 cells by isothermal titration calorimetry assay. Conditions: dengue virus type 2. (In general: In ITC the heat of successive injections is recorded.)
In data set [9] the test system is BHK-21. In words: Binding affinity to RdRp domain of NS5 in DENV-2 infected in BHK-21 cells by isothermal titration calorimetry assay. The conditions noted are these: dengue virus type 2.
Data set [10] deals with BHK-21. Nature of the data set: Reduction in viral structure E protein expression in second round DENV-2 infected golden hamster BHK-21 cells assessed in new virions at 0.5 to 10 uM measured after 24 hrs by confocal microscopy relative to control. The class given is functional, cell-based. The conditions noted are these: dengue virus type 2, dose 0.5-10 µM.

pEC50: −log10 of the molar value. Activity calls are given as the source filed them. The calls are words filed in the database; no cut-off is given here.

Turning to `CC1(C)CC(=O)C2=C(C1)N(c1ccccc1)C(c1ccccc1Br)N(c1ccccc1)C2` (centres undefined), the pEC50 (as a rule, the EC50 on a negative log10 scale, so that one unit is a factor of ten) with dengue virus type 2 [1] was 5.41.

Consider `CC(C)C1N(c2ccccc2)CC2=C(CC(C)(C)CC2=O)N1c1ccccc1` (centres undefined), for which the pEC50 with dengue virus type 2 [1] was under 4.70.

Turning to `CC1(C)CC(=O)C2=C(C1)N(c1ccccc1)C(c1ccc(OCc3ccccc3)cc1)N(c1ccccc1)C2` (centres undefined), the pEC50 in the data set on dengue virus type 2 [1] was 5.58.

Consider `CC1(C)CC(=O)C2=C(C1)N(c1ccc(-c3ccccc3)cc1)C(c1ccc(Br)cc1)N(c1ccc(Cl)cc1)C2` (centres undefined), for which the pEC50 with dengue virus type 2 [1] is under 4.70.

As to `CC1(C)CC(=O)C2=C(C1)N(c1ccccc1)C(c1cccs1)N(c1ccccc1)C2` (centres undefined), the pEC50 in the data set with dengue virus type 2 [1] was under 4.70.

For `CC1(C)CC(=O)C2=C(C1)N(c1ccccc1)C(c1cccc(C(F)(F)F)c1)N(c1ccccc1)C2` (centres undefined), the selectivity ratio in data set [2] came to 13.5. Moreover, in data set [3], the CC50 – broadly, the concentration at which the toxic effect on the cells reaches its halfway point – at 48 h came to 17.9 µM. Besides, in the data set with dengue virus type 2 [1], the pEC50 was 5.88.

As to `CC1(C)CC(=O)C2=C(C1)N(c1ccccc1)C(c1ccc(Br)cc1)N(c1ccc(C(C)(C)C)cc1)C2` (centres undefined), the pEC50 with dengue virus type 2 [1] is 5.27.

As for `CC1(C)CC(=O)C2=C(C1)N(c1ccccc1)C(c1ccc(Cl)cc1)N(c1ccccc1)C2` (centres undefined), in the data set on dengue virus type 2 [1], the pEC50 is 5.22.

Turning to `CC1(C)CC(=O)C2=C(C1)N(c1ccc3ccccc3c1)C(c1ccc(Br)cc1)N(c1ccc(Cl)cc1)C2` (centres undefined), the pEC50 with dengue virus type 2 [1] is 4.87.

For `CC1(C)CC(=O)C2=C(C1)N(c1ccccc1)C(c1ccc(O)cc1)N(c1ccccc1)C2` (centres undefined), the pEC50 in the data set with dengue virus type 2 [1] was under 4.70.

For the molecule `CC1(C)CC(=O)C2=C(C1)N(Cc1ccccc1)C(c1ccccc1)N(Cc1ccccc1)C2` (centres undefined), the pEC50 with dengue virus type 2 [1] is under 4.70.

With `CC1(C)CC(=O)C2=C(C1)N(c1ccccc1)C(c1ccc3ccccc3c1)N(c1ccccc1)C2` (centres undefined), the pEC50 in the data set with dengue virus type 2 [1] is under 4.70.

Consider `CC1(C)CC(=O)C2=C(C1)N(c1ccccc1)C(c1ccc(C(C)(C)C)cc1)N(c1ccccc1)C2` (centres undefined), for which, in the data set on dengue virus type 2 [1], the pEC50 is 5.06.

As to `CC1(C)CC(=O)C2=C(C1)N(c1ccccc1)C(c1ccc(Br)cc1)N(Cc1ccccc1)C2` (centres undefined), the pEC50 in the data set with dengue virus type 2 [1] was under 4.70.

Take `CC1(C)CC(=O)C2=C(C1)N(c1ccccc1)C(c1cccc([N+](=O)[O-])c1)N(c1ccccc1)C2` (centres undefined): the pEC50 in the data set on dengue virus type 2 [1] was 5.55.

With `CC1(C)CC(=O)C2=C(C1)N(c1ccc(Oc3ccccc3)cc1)C(c1ccc(Br)cc1)N(c1ccc(Cl)cc1)C2` (centres undefined), the pEC50 with dengue virus type 2 [1] was under 4.70.

On to `CC1(C)CC(=O)C2=C(C1)N(c1ccccc1)C(c1ccc(Br)cc1)N(c1ccc(-c3ccccc3)cc1)C2` (centres undefined), for which the pEC50 in the data set on dengue virus type 2 [1] is under 4.70.

As for `CC1(C)CC(=O)C2=C(C1)N(c1ccccc1)C(c1ccc(OC(F)(F)F)cc1)N(c1ccccc1)C2` (centres undefined), the pEC50 in the data set with dengue virus type 2 [1] is 5.60.

On to `CC1(C)CC(=O)C2=C(C1)N(c1ccccc1)C(c1ccc(Br)cc1)N(c1ccc(C(F)(F)F)cc1)C2` (centres undefined), for which the pEC50 with dengue virus type 2 [1] was 5.40.

With `CC1(C)CC(=O)C2=C(C1)N(c1ccccc1)C(c1ccccc1)N(c1ccccc1)C2` (centres undefined), the pEC50 with dengue virus type 2 [1] is under 4.70.

As for `CC1(C)CC(=O)C2=C(C1)N(c1ccccc1)C(c1cccc3ccccc13)N(c1ccccc1)C2` (centres undefined), the pEC50 with dengue virus type 2 [1] is 5.41.

As to `CC1(C)CC(=O)C2=C(C1)N(c1ccccc1)C(c1ccc(OC(C)(C)C)cc1)N(c1ccccc1)C2` (centres undefined), the pEC50 in the data set on dengue virus type 2 [1] was 5.58.

Take `CC(C)c1ccc(C2N(c3ccccc3)CC3=C(CC(C)(C)CC3=O)N2c2ccccc2)cc1` (centres undefined): in the data set on dengue virus type 2 [1], the pEC50 was 5.44.

For the molecule `COc1cc(C2N(c3ccccc3)CC3=C(CC(C)(C)CC3=O)N2c2ccccc2)cc(OC)c1O` (centres undefined), the negative-log EC50 (pEC50) in the data set with dengue virus type 2 [1] is under 4.70.

On to `CC1(C)CC(=O)C2=C(C1)N(c1ccccc1)C(c1ccc(C#N)cc1)N(c1ccccc1)C2` (centres undefined), for which the pEC50 with dengue virus type 2 [1] is 5.13.

Take `CC(C)Oc1ccc(C2N(c3ccccc3)CC3=C(CC(C)(C)CC3=O)N2c2ccccc2)cc1` (centres undefined): in the data set on dengue virus type 2 [1], the pEC50 is 5.30.

For the molecule `Cc1ccc(C2N(c3ccccc3)CC3=C(CC(C)(C)CC3=O)N2c2ccccc2)s1` (centres undefined), in the data set with dengue virus type 2 [1], the pEC50 is 5.49.

Take `CC1(C)CC(=O)C2=C(C1)N(c1ccc(F)cc1)C(c1ccc(Br)cc1)N(c1ccc(Cl)cc1)C2` (centres undefined): the selectivity ratio in [2] is over 7.58. Further, the CC50 at 48 h in data set [3] was over 20 µM. In addition, the pEC50 in the data set on dengue virus type 2 [1] was 5.58.

With `CC(C)c1ccc(N2CC3=C(CC(C)(C)CC3=O)N(c3ccccc3)C2c2ccc(Br)cc2)cc1` (centres undefined), the pEC50 in the data set with dengue virus type 2 [1] is 5.26.

For the molecule `CCCCC1N(c2ccccc2)CC2=C(CC(C)(C)CC2=O)N1c1ccccc1` (centres undefined), the pEC50 in the data set on dengue virus type 2 [1] was under 4.70.

On to `CC1(C)CC(=O)C2=C(C1)N(c1ccccc1)C(c1ccc(Br)cc1)N(c1ccc(Oc3ccccc3)cc1)C2` (centres undefined), for which, in [2], the selectivity ratio came out at 5.89. Also, the CC50 at 48 h in data set [3] worked out at 10.9 µM. The pEC50 in the data set on dengue virus type 2 [1] was 5.73.

As for `CC1(C)CC(=O)C2=C(C1)N(c1ccccc1)C(c1ccc(-c3ccccc3)cc1)N(c1ccccc1)C2` (centres undefined), in the data set on dengue virus type 2 [1], the pEC50 was under 4.70.

Consider `COc1ccc(C2N(c3ccccc3)CC3=C(CC(C)(C)CC3=O)N2c2ccccc2)cc1` (centres undefined), for which the pEC50 with dengue virus type 2 [1] was 5.12.

As to `CC1(C)CC(=O)C2=C(C1)N(c1ccccc1)C(c1ccc(Br)cc1)N(c1ccccc1Cl)C2` (centres undefined), the pEC50 in the data set with dengue virus type 2 [1] was under 4.70.

For the molecule `CC1(C)CC(=O)C2=C(C1)N(c1ccccc1)C(c1ccc(F)cc1)N(c1ccccc1)C2` (centres undefined), in the data set on dengue virus type 2 [1], the pEC50 was under 4.70.

For the molecule `CC1(C)CC(=O)C2=C(C1)N(c1ccccc1)C(c1ccc(Br)cc1)N(c1cccc(Cl)c1)C2` (centres undefined), the pEC50 in the data set with dengue virus type 2 [1] is 5.33.

In the case of `CC1(C)CC(=O)C2=C(C1)N(c1ccccc1)C(c1ccc(Br)cc1)N(c1ccc3ccccc3c1)C2` (centres undefined), in the data set on dengue virus type 2 [1], the pEC50 is 5.75.

Turning to `CC1(C)CC(=O)C2=C(C1)N(c1ccccc1)C(c1cccc(Br)c1)N(c1ccccc1)C2` (centres undefined), the inhibition entry in the data set with BHK-21 [4], with BHK-21 [6] and in the data set with BHK-21 [10] was “Active” each time. In the data set with dengue virus type 2 [5], the outcome was Active. For the same molecule, the selectivity ratio in data set [2] is over 15.3. The inhibition (commonly the drop in the measured response relative to a control, in per cent) at 10 µM in data set [7] stood at 100%. For the same molecule, in data set [3], the CC50 at 48 h is over 20 µM. The result in the data set on BHK-21 [8] and in the data set with BHK-21 [9] was inactive. Moreover, in the data set with dengue virus type 2 [1], the Activity entry was “Dose-dependent effect”. The pEC50 with dengue virus type 2 [1] was 5.88.

As for `COc1ccc(N2CC3=C(CC(C)(C)CC3=O)N(c3ccccc3)C2c2ccc(Br)cc2)cc1` (centres undefined), the pEC50 in the data set with dengue virus type 2 [1] is 5.27.

Consider `CC1(C)CC(=O)C2=C(C1)N(c1ccccc1)C(c1ccc(Br)cc1)N(c1ccc(Br)cc1)C2` (centres undefined), for which the pEC50 in the data set with dengue virus type 2 [1] was 5.63.

In the case of `CC1(C)CC(=O)C2=C(C1)N(c1ccccc1)C(c1ccc(Br)cc1)N(c1ccccc1)C2` (centres undefined), the selectivity ratio in data set [2] is over 7.02. In data set [3], the half-maximal cytotoxic concentration (CC50) at 48 h is over 20 µM. Further, in the data set with dengue virus type 2 [1], the pEC50 was 5.55.

In the case of `CC1(C)CC(=O)C2=C(C1)N(c1ccc(Cc3ccccc3)cc1)C(c1ccc(Br)cc1)N(c1ccc(Cl)cc1)C2` (centres undefined), the pEC50 in the data set on dengue virus type 2 [1] was under 4.70.

For the molecule `CC1(C)CC(=O)C2=C(C1)N(c1ccc(Cl)cc1)C(c1ccc(Br)cc1)N(c1ccc(Cl)cc1)C2` (centres undefined), the pEC50 with dengue virus type 2 [1] is 5.36.

With `CC1(C)CC(=O)C2=C(C1)N(c1ccccc1)C(c1ccc([N+](=O)[O-])cc1)N(c1ccccc1)C2` (centres undefined), the pEC50 in the data set with dengue virus type 2 [1] was 5.43.

Regarding `CC1(C)CC(=O)C2=C(C1)N(c1cccc(Cl)c1)C(c1ccc(Br)cc1)N(c1ccc(Cl)cc1)C2` (centres undefined), in the data set with dengue virus type 2 [1], the pEC50 is 5.25.

Consider `COc1ccc(N2C3=C(CN(c4ccc(Cl)cc4)C2c2ccc(Br)cc2)C(=O)CC(C)(C)C3)cc1` (centres undefined), for which the selectivity ratio in data set [2] was over 7.69. In [3], this molecule yielded a CC50 at 48 h of over 20 µM. Also, in the data set on dengue virus type 2 [1], the pEC50 is 5.59.

For the molecule `CC1(C)CC(=O)C2=C(C1)N(c1ccccc1)C(c1ccc(Br)cc1)N(c1ccc(OC(F)(F)F)cc1)C2` (centres undefined), the pEC50 with dengue virus type 2 [1] was 5.74.

With `CC1(C)CC(=O)C2=C(C1)N(c1ccccc1)C(c1ccc(Br)cc1)N(c1ccc(F)cc1)C2` (centres undefined), in data set [2], the selectivity ratio was found to be 5.3. Further, the CC50 at 48 h in data set [3] stood at 10 µM. Also, in the data set with dengue virus type 2 [1], the pEC50 was 5.72.

In the case of `CC1(C)CC(=O)C2=C(C1)N(c1ccccc1)C(c1ccc(Br)cc1)N(c1ccc(Cl)cc1)C2` (centres undefined), the selectivity ratio in [2] is 9.18. The molecule also displayed a CC50 at 48 h in data set [3] of 12.7 µM. In addition, in the data set on dengue virus type 2 [1], the pEC50 is 5.86.

For `CC1(C)CC(=O)C2=C(C1)N(c1ccccc1)C(c1ccc(C(F)(F)F)cc1)N(c1ccccc1)C2` (centres undefined), in the data set with dengue virus type 2 [1], the pEC50 was 5.43.

The values are drawn from ChEMBL document CHEMBL4765341, “A series of octahydroquinazoline-5-ones as novel inhibitors against dengue virus” (Eur J Med Chem, 2020).
